Laboratory results taken from patent publication US4206215A, “Antimicrobial bis-[4-(substituted-amino)-1-pyridinium]alkanes” (Sterling Drug Inc., priority 1977, dated 1980).

What was measured:
E. coli AB1932-1 = assay: In vitro antibacterial activity, MIC (modified Autotiter method); format: cell-based, Escherichia coli; settings: Escherichia coli, AB19321, 20 h, 18-20 hours at 37° C.; read-out: MIC E. coli AB1932-1
Outline: (§1)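 Compounds are diluted serially by twofold steps in sterile water using the Autotiter, beginning with a 1,000 mcg./ml. solution; addition of inoculated double-strength semisynthetic medium with glucose yields final concentrations between 500 and 0.06 mcg./ml.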

E. coli 100/B22 = assay: as above; format: cell-based, Escherichia coli; settings: Escherichia coli, 100/B22, 20 h, 18-20 hours at 37° C.; read-out: MIC E. coli 100/B22
Outline: as §1

E. coli Vogel = assay: as above; format: cell-based, Escherichia coli; settings: Escherichia coli, 20 h, 18-20 hours at 37° C.; read-out: MIC E. coli Vogel
Outline: as §1

P. mirab. MGH-1 = assay: as above; format: cell-based, Proteus mirabilis; settings: Proteus mirabilis, 20 h, 18-20 hours at 37° C.; read-out: MIC P. mirab. MGH-1
Outline: as §1

[1] = tested on: Herpes simplex type 2 virus; assay: Virucidal activity in vitro (plaque inhibition test); format: cell-based; settings: 2 mg. of test compound on growth medium
Description: Virucidal activity of representative examples against Herpes simplex type 2 virus was determined in vitro employing a procedure similar to the plaque inhibition test for detection of specific inhibitors of DNA-containing viruses published by E. C. Herrmann, Jr., Proc. Soc. Exp. Biol. Med. 107, 142 (1961) wherein 2 mg. of the test compound was placed on the surface of the growth medium.

T. menta. 9129 = assay: In vitro antifungal activity, MIC (modified Autotiter method); format: cell-based, Trichophyton mentagrophytes; settings: Trichophyton mentagrophytes, 20 h, 18-20 hours at 37° C.; read-out: MIC T. menta. 9129
Outline: as §1

S. pyogen. C203 = assay: In vitro antibacterial activity, MIC (modified Autotiter method); format: cell-based, Streptococcus pyogenes; settings: Streptococcus pyogenes, 20 h, 18-20 hours at 37° C.; read-out: MIC S. pyogen. C203
Outline: as §1

Ps. aerug. MGH-2 = assay: as above; format: cell-based, Pseudomonas aeruginosa; settings: Pseudomonas aeruginosa, 20 h, 18-20 hours at 37° C.; read-out: MIC Ps. aerug. MGH-2
Outline: as §1

K. pneum. 39645 = assay: as above; format: cell-based, Klebsiella pneumoniae; settings: Klebsiella pneumoniae, 20 h, 18-20 hours at 37° C.; read-out: MIC K. pneum. 39645
Outline: as §1

C. albicans 10231 = assay: In vitro antifungal activity, MIC (modified Autotiter method); format: cell-based, Candida albicans; settings: Candida albicans, 10231, 20 h, 18-20 hours at 37° C.; read-out: MIC C. albicans 10231
Outline: as §1

C. albicans Wisc. = assay: as above; format: cell-based, Candida albicans; settings: Candida albicans, 20 h, 18-20 hours at 37° C.; read-out: MIC C. albicans Wisc.
Outline: as §1

A. niger 16404 = assay: as above; format: cell-based, Aspergillus niger; settings: Aspergillus niger, 16404, 20 h, 18-20 hours at 37° C.; read-out: MIC A. niger 16404
Outline: as §1

S. Aureus Smith = assay: In vitro antibacterial activity, MIC (modified Autotiter method); format: cell-based, Staphylococcus aureus; settings: Staphylococcus aureus, 20 h, 18-20 hours at 37° C.; read-out: MIC S. Aureus Smith
Outline: as §1

| Structure (SMILES) | MIC (E. coli AB1932-1) [µg/mL] | MIC (E. coli 100/B22) [µg/mL] | MIC (E. coli Vogel) [µg/mL] | MIC (P. mirab. MGH-1) [µg/mL] | Virucidal activity against Herpes simplex type 2 virus [1] | MIC (T. menta. 9129) [µg/mL] | MIC (S. pyogen. C203) [µg/mL] | MIC (Ps. aerug. MGH-2) [µg/mL] | MIC (K. pneum. 39645) [µg/mL] | MIC (C. albicans 10231) [µg/mL] | MIC (C. albicans Wisc.) [µg/mL] | MIC (A. niger 16404) [µg/mL] | MIC (S. Aureus Smith) [µg/mL] |
| --- | --- | --- | --- | --- | --- | --- | --- | --- | --- | --- | --- | --- | --- |
| c1c[n+](CCCCCCC[n+]2ccc(NC3CCCCC3)cc2)ccc1NC1CCCCC1 [Example 37, 1,7-bis-[4-(cyclohexylamino)-1-pyridinium]heptane dibromide] | 125 | > 125 | > 125 | > 125 | active | 15.6 | 7.8 | 125 | > 125 | 125 | 125 | > 125 | 7.8 |
| CCCCCCNc1cc[n+](CCCCC[n+]2ccc(NCCCCCC)cc2)cc1 [Example 31, 1,5-bis-[4-(hexylamino)-1-pyridinium]pentane dibromide] | 31.3 | 62.5 | 125 | > 250 | active | 31.3 | 0.98 | > 125 | > 125 | 31.3 | 62.5 | 31.3 | 1.95 |
| CCCCCCNc1cc[n+](CCCCCCC[n+]2ccc(NCCCCCC)cc2)cc1 [Example 18, 1,7-bis-[4-(hexylamino)-1-pyridinium]heptane dibromide] | 7.8 | 7.8 | 15.6 | > 125 | active | 15.6 | 0.49 | > 125 | 15.6 | 6.25 | 7.8 | 15.6 | 0.39 |
| c1c[n+](CCCCCC[n+]2ccc(NC3CCCCC3)cc2)ccc1NC1CCCCC1 [Example 36, 1,6-bis-[4-(cyclohexylamino)-1-pyridinium]hexane dibromide] | 125 | > 125 | > 125 | > 125 | active | 15.6 | 15.6 | > 125 | > 125 | 125 | 125 | 125 | 15.6 |
| CCCCC(CC)CNc1cc[n+](CCCCC[n+]2ccc(NCC(CC)CCCC)cc2)cc1 (centres unmarked) [Example 53, 1,5-bis-[4-(2-ethylhexylamino)-1-pyridinium]pentane dibromide] | 7.8 | 15.6 | 15.6 | > 125 | active | 7.8 | 0.625 | 125 | > 125 | 31.3 | 15.6 | 31.3 | 0.49 |
| Clc1ccc(Nc2cc[n+](CCCCCCC[n+]3ccc(Nc4ccc(Cl)cc4)cc3)cc2)cc1 [Example 81, 1,7-bis-[4-(p-chlorophenylamino)-1-pyridinium]heptane dibromide] | 125 | 3.9 | 3.9 | > 125 | active | 7.8 | 0.49 | > 125 | > 125 | 31.3 | 31.3 | 31.3 | 0.98 |
| CCCCC(CC)CNc1cc[n+](CCCCCCCCC[n+]2ccc(NCC(CC)CCCC)cc2)cc1 (centres unmarked) [Example 57, 1,9-bis-[4-(2-ethylhexylamino)-1-pyridinium]nonane dibromide] | 0.98 | 0.98 | 0.98 | 125 | active | 0.98 | 0.625 | 125 | 7.8 | 3.9 | 3.9 | 15.6 | 0.31 |
| Clc1ccc(Nc2cc[n+](CCCCCCCCC[n+]3ccc(Nc4ccc(Cl)cc4)cc3)cc2)cc1 [Example 82, 1,9-bis-[4-(p-chlorophenylamino)-1-pyridinium]nonane dibromide] | 0.98 | 1.95 | 0.98 | > 125 | active | 3.9 | 0.24 | 125 | 7.8 | 3.9 | 3.9 | 15.6 | 0.625 |
| CCCCCCNc1cc[n+](CCCCCC[n+]2ccc(NCCCCCC)cc2)cc1 [Example 17, 1,6-bis-[4-(hexylamino)-1-pyridinium]-hexane dibromide] | 7.8 | 0.78 | 31.3 | > 250 | active |  | > 250 | > 125 | 125 | 15.6 | 15.6 | 7.8 | 0.49 |
| CCCCCCCCCCNc1cc[n+](CCCCCCC[n+]2ccc(NCCCCCCCCCC)cc2)cc1 [Example 65, 1,7-bis-[4-(decylamino)-1-pyridinium]heptane dibromide] | 3.9 | 3.9 | 3.9 | 3.9 |  | 1.95 | 1 | 7.8 | 7.8 | 15.6 | 15.6 | 7.8 | 1 |
| Clc1ccc(Nc2cc[n+](CCCCC[n+]3ccc(Nc4ccc(Cl)cc4)cc3)cc2)cc1 [Example 80, 1,5-bis-[4-(p-chlorophenylamino)-1-pyridinium]pentane dibromide] | 31.3 | 125 | 125 | > 125 |  | 15.6 | 1.95 | > 125 | > 125 | 62.5 | 62.5 | 62.5 | 7.8 |
